Values quoted from earlier work as cited in patent publication US6376531B1, “Method of treatment using deuterium compounds” (priority 1998, dated 2002).

Columns and labels:
mice = settings: Hayes and Palmer 1976, 1972
mouse = settings: Hayes and Palmer, Experientia 1976

| Structure (SMILES) | solubility in aqueous solutions | solubility in water | also measured |
| --- | --- | --- | --- |
| N[C@@H](Cc1c[nH]c2ccc(O)cc12)C(=O)O [5-hydroxytryptophan] | soluble |  |  |
| [2H]O[2H] [Deuterium oxide] |  |  | effect on the period and entrainment of the light-dark (LD) cycle (mice): chronomutagenic effect; spontaneous locomotor activity (mouse): suppressed |
| COc1ccc2[nH]cc(CCNC(C)=O)c2c1 [Melatonin] | soluble | soluble |  |
| CSCC[C@H](N)C(=O)O [Methionine] |  | soluble |  |
| NC[C@H](O)c1ccc(O)c(O)c1 [Norepinephrine] | freely soluble |  |  |
| NCCc1c[nH]c2ccc(O)cc12 [Serotonin] | soluble |  |  |
| NCCc1c[nH]c2ccccc12 [Tryptamine] | practically insoluble |  |  |
| N[C@@H](Cc1c[nH]c2ccccc12)C(=O)O [Tryptophan] |  | soluble |  |
